In ChEMBL document CHEMBL3232975, “Using ovality to predict nonmutagenic, orally efficacious pyridazine amides as cell specific spleen tyrosine kinase inhibitors” (J Med Chem, 2014):
In brackets after ≈: the same amount, converted by molar mass.

Columns and labels:
[1] = Volume of distribution at steady state in mouse at 1 mg/kg, iv; format: ADME, organism-based; parameters: dose 1 mg/kg, route intravenous; details: in vivo, read-out: Vdss
Mus musculus [2] = test: Dose-normalized AUC in mouse at 10 to 20 mg/kg, po; format: ADME, organism-based; parameters: dose 10-20 mg/kg, route oral; details: in vivo
[3] = Oral bioavailability in mouse at 10 to 20 mg/kg; format: ADME, organism-based; details: in vivo
[4] = Apparent terminal half life in mouse at 1 mg/kg, iv; format: ADME, organism-based; parameters: dose 1 mg/kg, route intravenous; details: in vivo, read-out: betat1/2(app) (converted)
[5] = Total plasma clearance in mouse at 1 mg/kg, iv; format: ADME, organism-based; parameters: dose 1 mg/kg, route intravenous
Mus musculus [6] = test: Dose-normalized AUC in mouse at 30 mg/kg, po; format: ADME, organism-based; parameters: dose 30 mg/kg, route oral; details: in vivo
[7] = Cmax in mouse at 30 mg/kg, po; format: ADME, organism-based; parameters: dose 30 mg/kg, route oral; details: in vivo
[8] = Metabolic stability in rat liver microsomes; format: ADME; details: read-out: Stability
[9] = Volume of distribution at steady state in mouse at 0.5 mg/kg, iv; format: ADME, organism-based; parameters: dose 0.5 mg/kg, route intravenous; details: in vivo, read-out: Vdss
[10] = Solubility of the compound by LYSA; format: physicochemical
[11] = Oral bioavailability in mouse at 30 mg/kg; format: ADME, organism-based; details: in vivo
[12] = Metabolic stability in human liver microsomes; format: ADME; details: read-out: Stability
[13] = Apparent terminal half life in mouse at 0.5 mg/kg, iv; format: ADME, organism-based; parameters: dose 0.5 mg/kg, route intravenous; details: in vivo, read-out: betat1/2(app) (converted)
[14] = Total plasma clearance in mouse at 0.5 mg/kg, iv; format: ADME, organism-based; parameters: dose 0.5 mg/kg, route intravenous
[15] = Oral bioavailability in mouse at 5 mg/kg; format: ADME, organism-based; details: in vivo
Mus musculus [16] = test: Dose-normalized AUC in mouse at 5 mg/kg, po; format: ADME, organism-based; parameters: dose 5 mg/kg, route oral; details: in vivo
[17] = Cmax in mouse at 5 mg/kg, po; format: ADME, organism-based; parameters: dose 5 mg/kg, route oral; details: in vivo

Vd [1] | AUC/dose (Mus musculus [2]) | bioavailability [3] | half-life [4] | clearance [5] | CLhep predicted [8] | solubility [10] | CLhep predicted [12] | also measured | SMILES
3.67 L/kg | 365 ng/mL.hr/(mg/kg) | 92% | 1.96 h | 42.2 mL/min/kg |  |  |  |  | COc1ccc(Nc2cc(N[C@@H]3CCOC[C@@H]3N)nnc2C(N)=O)nc1C(C)C
 |  |  |  |  | 18 mL/min/kg | 390 µg/mL (≈ 1090 µM) | 3 mL/min/kg | AUC/dose (Mus musculus [6]): 568 ng/mL.hr/(mg/kg); Cmax [7]: 1560 ng/mL; Vd [9]: 1.44 L/kg; bioavailability [11]: 20%; half-life [13]: 3.26 h; clearance [14]: 5.57 mL/min/kg | Cc1nc(Nc2cc(N[C@@H]3CCCC[C@@H]3N)nnc2C(N)=O)ccc1F
1.4 L/kg | 609 ng/mL.hr/(mg/kg) | 61% | 1.74 h | 16.7 mL/min/kg |  |  |  |  | COc1ccc(Nc2cc(NCCN)nnc2C(N)=O)nc1C(C)C
0.63 L/kg | 1470 ng/mL.hr/(mg/kg) | 75% | 1.28 h | 8.52 mL/min/kg |  |  |  |  | CCCc1nc(Nc2cc(NCCN)nnc2C(N)=O)ccc1OC
 |  |  |  |  | 20 mL/min/kg | 345 µg/mL (≈ 918 µM) | 7 mL/min/kg | AUC/dose (Mus musculus [6]): 9753 ng/mL.hr/(mg/kg); Cmax [7]: 144 ng/mL; Vd [9]: 2.74 L/kg; bioavailability [15]: 51%; bioavailability [11]: 40%; half-life [13]: 3.92 h; AUC/dose (Mus musculus [16]): 970 ng/mL.hr/(mg/kg); clearance [14]: 8.65 mL/min/kg; Cmax [17]: 386 ng/mL | Cc1nc(Nc2cc(N[C@@H]3CCCC[C@@H]3N)nnc2C(N)=O)ccc1Cl
 |  |  |  |  | 27 mL/min/kg | 404 µg/mL (≈ 1100 µM) | 2 mL/min/kg |  | NC(=O)c1nnc(N[C@@H]2CCCC[C@@H]2N)cc1Nc1ccc2c(n1)CCC2
 |  |  |  |  | 14 mL/min/kg | 522 µg/mL (≈ 1350 µM) | 2 mL/min/kg |  | COc1ccc(Nc2cc(N[C@@H]3CCCC[C@@H]3N)nnc2C(N)=O)nc1OC
 |  |  |  |  | 23 mL/min/kg | 329 µg/mL (≈ 926 µM) | 1 mL/min/kg | AUC/dose (Mus musculus [16]): 25.9 ng/mL.hr/(mg/kg) | Cc1ccc(Nc2cc(N[C@@H]3CCCC[C@@H]3N)nnc2C(N)=O)nc1C
 |  |  |  |  | 27 mL/min/kg | 471 µg/mL (≈ 1380 µM) | 2 mL/min/kg |  | Cc1cccc(Nc2cc(N[C@@H]3CCCC[C@@H]3N)nnc2C(N)=O)n1
